Experimental findings from patent US20110038917A1, “THERAPEUTIC COMPOSITIONS AND METHODS FOR TREATING GRAM-NEGATIVE BACTERIAL INFECTIONS” (RQ Bioscience, Inc., priority 2007, published 2011) are described below.

The subject of the experiment is Pseudomonas aeruginosa infection. The experiment can be described thus: Self-administered inhalation by a cystic fibrosis patient with Pseudomonas aeruginosa infection: patient-reported signs of infection. The class given is in vivo, human. The following applies: for initial response of asthma and coughing to the antibiotic regimen: ciprofloxacin 2×1000 mg, Zithromax 1×500 mg daily and TOBI 2×5mg given together; for severity of asthma, frequency of coughing and quantity of expectorated mucus after three months on the antibiotics: ciprofloxacin, Zithromax and TOBI given together. The source says:
I. A cystic fibrosis patient described their asthma as increasingly severe and being present constantly during the day. They reported being more short-breathed than previously, often experiencing difficulty breathing after walking only 50 meters. They also reported an increasingly persistent cough, which escalated to almost every minute. They also described coughing up a “fluorescent light green” mucus. The patient further reported losing about 3.5 kg of weight.
After a lab test by their cystic fibrosis doctor, the patient was diagnosed with a Pseudomonas aeruginosa infection. They were prescribed the antibiotics ciprofloxacin (2×1000 mg), Zithromax® (azithromycin, 1×500 mg daily) and TOBI, an aerosolized form of tobramycin (2×5mg). […]
The patient reports that during the past 3 months they have resumed using the lactoferrin/OPC combination, as well as TOBI twice a day and Zithromax, and pulmozyme.

Consider `O=C(O)c1cn(C2CC2)c2cc(N3CCNCC3)c(F)cc2c1=O` [ciprofloxacin], for which the “initial response of asthma and coughing to the antibiotic regimen” value was “initial noticeable decrease in both the asthma and coughing”; the “severity of asthma, frequency of coughing and quantity of expectorated mucus after three months on the antibiotics” value is on record as “began increasing”.
`CC[C@H]1OC(=O)[C@H](C)[C@@H](O[C@H]2C[C@@](C)(OC)[C@@H](O)[C@H](C)O2)[C@H](C)[C@@H](O[C@@H]2O[C@H](C)C[C@H](N(C)C)[C@H]2O)[C@](C)(O)C[C@@H](C)CN(C)[C@H](C)[C@@H](O)[C@]1(C)O` [Zithromax, azithromycin]: the “initial response of asthma and coughing to the antibiotic regimen” value is “initial noticeable decrease in both the asthma and coughing”; the “severity of asthma, frequency of coughing and quantity of expectorated mucus after three months on the antibiotics” value was “began increasing”.
